Earlier results as cited in patent US20200323770A1, “WOUND DEBRIDEMENT COMPOSITION AND METHOD FOR TREATING WOUNDS” (Hollister Incorporated, priority 2017, published 2020).

Settings: in vitro; increasing papain concentrations 200-1,600 USP units/mg in 10% urea

papain
increased: collagenolysis | elastinolysis | fibrinolysis
